# Laboratory results published in publication PMC5218480 (PLoS ONE, 2017).
# Tested on: MV-4-11 cells
# Assay: Gene expression microarray analysis (Affymetrix PrimeView) and GSEA
# Type: cell-based, human
# Parameters: RFU PODN (11730768_x_at) / Fold change /veh PODN (11730768_x_at) / RFU LINC00158 (11744669_a_at) / Fold change /veh LINC00158 (11744669_a_at) / RFU DUSP10 (11751237_a_at) / Fold change /veh DUSP10 (11751237_a_at) / RFU ID3 (11757404_x_at) / Fold change /veh ID3 (11757404_x_at) / RFU PLEKHG5 (11737974_s_at) / Fold change /veh PLEKHG5 (11737974_s_at) / RFU LRRC4B (11730491_at) / Fold change /veh LRRC4B (11730491_at) / RFU GIMAP4 (11747438_a_at) / Fold change /veh GIMAP4 (11747438_a_at) / RFU KRT8 (11758183_x_at) / Fold change /veh KRT8 (11758183_x_at) / RFU CNN1 (11734310_a_at) / Fold change /veh CNN1 (11734310_a_at) / RFU VPS37D (11726825_at) / Fold change /veh VPS37D (11726825_at) / RFU C10orf10 (11716522_x_at) / Fold change /veh C10orf10 (11716522_x_at) / RFU KIR2DL2 /// KIR2DL4 /// KIR2DL5A /// KIR2DL5B /// KIR2DS1 /// KIR2DS2 /// KIR2DS3 /// KIR2DS4 /// KIR3DL3 /// KIR3DL3 /// KIR3DS1 (11738374_at) / Fold change /veh KIR2DL2 /// KIR2DL4 /// KIR2DL5A /// KIR2DL5B /// KIR2DS1 /// KIR2DS2 /// KIR2DS3 /// KIR2DS4 /// KIR3DL3 /// KIR3DL3 /// KIR3DS1 (11738374_at) / RFU C1QL1 (11718748_at) / Fold change /veh C1QL1 (11718748_at) / RFU TMPRSS4 (11747572_a_at) / Fold change /veh TMPRSS4 (11747572_a_at) / RFU HAMP (11756126_x_at) / Fold change /veh HAMP (11756126_x_at) / RFU RNFT2 (11725882_a_at) / Fold change /veh RNFT2 (11725882_a_at) / RFU NR4A2 (11747474_a_at) / Fold change /veh NR4A2 (11747474_a_at) / RFU ABCC12 (11746883_a_at) / Fold change /veh ABCC12 (11746883_a_at) / RFU TMEM136 (11760407_x_at) / Fold change /veh TMEM136 (11760407_x_at) / RFU CLDN22 /// WWC2 (11732394_at) / Fold change /veh CLDN22 /// WWC2 (11732394_at) / RFU HLA-DPB1 (11760878_x_at) / Fold change /veh HLA-DPB1 (11760878_x_at) / RFU SPINT1 (11716480_a_at) / Fold change /veh SPINT1 (11716480_a_at) / RFU GAP43 (11754022_s_at) / Fold change /veh GAP43 (11754022_s_at) / RFU A4GNT (11735810_at) / Fold change /veh A4GNT (11735810_at) / RFU PRB3 (11715151_x_at) / Fold change /veh PRB3 (11715151_x_at) / RFU TUBB4B (11761932_at) / Fold change /veh TUBB4B (11761932_at) / RFU CAPN14 (11732068_a_at) / Fold change /veh CAPN14 (11732068_a_at) / RFU TMCC2 (11721928_a_at) / Fold change /veh TMCC2 (11721928_a_at) / RFU IRGQ (11745062_a_at) / Fold change /veh IRGQ (11745062_a_at) / RFU FAM174B (11720279_a_at) / Fold change /veh FAM174B (11720279_a_at) / RFU TMPRSS4 (11748680_a_at) / Fold change /veh TMPRSS4 (11748680_a_at) / RFU FAM212B (11763350_a_at) / Fold change /veh FAM212B (11763350_a_at) / RFU PLEKHG5 (11743358_a_at) / Fold change /veh PLEKHG5 (11743358_a_at) / RFU ZSCAN30 (11745921_a_at) / Fold change /veh ZSCAN30 (11745921_a_at) / RFU CMKLR1 (11741424_a_at) / Fold change /veh CMKLR1 (11741424_a_at) / RFU LOC101060620 /// MAPK8IP1 (11723275_at) / Fold change /veh LOC101060620 /// MAPK8IP1 (11723275_at) / RFU SPTSSB (11747773_x_at) / Fold change /veh SPTSSB (11747773_x_at) / RFU PRSS12 (11739890_at) / Fold change /veh PRSS12 (11739890_at) / RFU BIN1 (11741810_x_at) / Fold change /veh BIN1 (11741810_x_at) / RFU WNT11 (11732464_a_at) / Fold change /veh WNT11 (11732464_a_at) / RFU C10orf10 (11716521_a_at) / Fold change /veh C10orf10 (11716521_a_at) / RFU C5orf56 (11738089_at) / Fold change /veh C5orf56 (11738089_at) / RFU CYB561 (11721691_x_at) / Fold change /veh CYB561 (11721691_x_at) / RFU ANKRD19P (11752326_a_at) / Fold change /veh ANKRD19P (11752326_a_at) / RFU OR2T12 /// OR2T33 /// OR2T8 (11738714_s_at) / Fold change /veh OR2T12 /// OR2T33 /// OR2T8 (11738714_s_at) / RFU VCAN (11748164_a_at) / Fold change /veh VCAN (11748164_a_at) / RFU JSRP1 (11732532_at) / Fold change /veh JSRP1 (11732532_at) / RFU KRTAP10-11 (11738290_x_at) / Fold change /veh KRTAP10-11 (11738290_x_at) / RFU MYO3A (11730013_a_at) / Fold change /veh MYO3A (11730013_a_at) / RFU EBF3 (11725865_a_at) / Fold change /veh EBF3 (11725865_a_at) / RFU CAMK2N1 (11719241_x_at) / Fold change /veh CAMK2N1 (11719241_x_at) / RFU C5orf56 (11738088_a_at) / Fold change /veh C5orf56 (11738088_a_at) / RFU OLFML3 (11715873_a_at) / Fold change /veh OLFML3 (11715873_a_at) / RFU LOC100653217 /// NTM (11731650_a_at) / Fold change /veh LOC100653217 /// NTM (11731650_a_at) / RFU MAPK11 (11762145_a_at) / Fold change /veh MAPK11 (11762145_a_at) / RFU FIZ1 (11724087_x_at) / Fold change /veh FIZ1 (11724087_x_at) / RFU OASL (11726364_x_at) / Fold change /veh OASL (11726364_x_at) / RFU SOX15 (11748057_x_at) / Fold change /veh SOX15 (11748057_x_at) / RFU CD79A (11719716_a_at) / Fold change /veh CD79A (11719716_a_at) / RFU HIST1H1D (11736915_at) / Fold change /veh HIST1H1D (11736915_at) / RFU CASKIN2 (11723855_a_at) / Fold change /veh CASKIN2 (11723855_a_at) / RFU LOC730098 (11760151_x_at) / Fold change /veh LOC730098 (11760151_x_at) / RFU OR4N2 (11742367_at) / Fold change /veh OR4N2 (11742367_at) / RFU PRRT2 (11749266_a_at) / Fold change /veh PRRT2 (11749266_a_at) / RFU SNX32 (11753110_a_at) / Fold change /veh SNX32 (11753110_a_at) / RFU CDHR5 (11726645_a_at) / Fold change /veh CDHR5 (11726645_a_at) / RFU RCAN1 (11760418_a_at) / Fold change /veh RCAN1 (11760418_a_at) / RFU FAM167A (11723789_a_at) / Fold change /veh FAM167A (11723789_a_at) / RFU FAM26E (11764081_at) / Fold change /veh FAM26E (11764081_at) / RFU ISYNA1 (11749810_s_at) / Fold change /veh ISYNA1 (11749810_s_at) / RFU ACY1 (11761880_at) / Fold change /veh ACY1 (11761880_at) / RFU 11764098_at / Fold change /veh 11764098_at / RFU SAMD14 (11745864_x_at) / Fold change /veh SAMD14 (11745864_x_at) / RFU NPB (11741838_a_at) / Fold change /veh NPB (11741838_a_at) / RFU TMPRSS6 (11731388_a_at) / Fold change /veh TMPRSS6 (11731388_a_at) / RFU KRTAP10-2 (11738614_at) / Fold change /veh KRTAP10-2 (11738614_at) / RFU ARHGAP8 /// PRR5-ARHGAP8 (11727945_x_at) / Fold change /veh ARHGAP8 /// PRR5-ARHGAP8 (11727945_x_at) / RFU KRTAP5-7 /// NADSYN1 (11734609_at) / Fold change /veh KRTAP5-7 /// NADSYN1 (11734609_at) / RFU RASL12 (11751679_a_at) / Fold change /veh RASL12 (11751679_a_at) / RFU CDKN2B (11736163_a_at) / Fold change /veh CDKN2B (11736163_a_at) / RFU PRF1 (11729649_at) / Fold change /veh PRF1 (11729649_at) / RFU, ZNF638 /// ZNF638-IT1 / Fold change vs veh, ZNF638 /// ZNF638-IT1 / RFU, PANK3 / Fold change vs veh, PANK3 / RFU, SH3YL1 / Fold change vs veh, SH3YL1 / RFU, ZEB2 / Fold change vs veh, ZEB2 / RFU, NRIP1 / Fold change vs veh, NRIP1 / RFU, PTTG1IP / Fold change vs veh, PTTG1IP / RFU, CAPN2 / Fold change vs veh, CAPN2 / RFU, MED14 / Fold change vs veh, MED14 / RFU, SNORA58 / Fold change vs veh, SNORA58 / RFU, C1orf63 / Fold change vs veh, C1orf63 / RFU, LRRFIP1 / Fold change vs veh, LRRFIP1 / RFU, NDUFAF7 / Fold change vs veh, NDUFAF7 / RFU, SLC12A2 / Fold change vs veh, SLC12A2 / RFU, IBTK / Fold change vs veh, IBTK / RFU, ESF1 / Fold change vs veh, ESF1 / Fold change vs veh, TMEM50B / RFU, TAOK1 / Fold change vs veh, TAOK1 / RFU, ACBD3 / Fold change vs veh, ACBD3 / RFU, TMA16 / Fold change vs veh, TMA16 / RFU, RWDD3 / Fold change vs veh, RWDD3 / RFU, BCAT1 / Fold change vs veh, BCAT1 / RFU, EDEM3 / Fold change vs veh, EDEM3 / RFU, TMEM33 / Fold change vs veh, TMEM33 / RFU, WDR75 / Fold change vs veh, WDR75 / RFU, AHCTF1 / Fold change vs veh, AHCTF1 / RFU, TFRC / Fold change vs veh, TFRC / RFU, ZDHHC17 / Fold change vs veh, ZDHHC17 / RFU, NOM1 / Fold change vs veh, NOM1 / RFU, ARL8B / Fold change vs veh, ARL8B / RFU, ZBTB11 / Fold change vs veh, ZBTB11 / RFU, TAMM41 / Fold change vs veh, TAMM41 / RFU, KIAA1704 /// LOC100996395 / Fold change vs veh, KIAA1704 /// LOC100996395 / RFU, ING1 / Fold change vs veh, ING1 / RFU, TRMT61B / Fold change vs veh, TRMT61B / RFU, FUBP3 / Fold change vs veh, FUBP3 / RFU, TP53 / Fold change vs veh, TP53 / RFU, TNKS2 / Fold change vs veh, TNKS2 / RFU, ZFP14 / Fold change vs veh, ZFP14 / RFU, ACTR2 / Fold change vs veh, ACTR2 / RFU, PPP3R1 / Fold change vs veh, PPP3R1 / RFU, PIK3R1 / Fold change vs veh, PIK3R1 / RFU, HNRNPA1 / Fold change vs veh, HNRNPA1 / RFU, RNF170 / Fold change vs veh, RNF170 / RFU, ZNF28 / Fold change vs veh, ZNF28 / RFU, RNGTT / Fold change vs veh, RNGTT / RFU, OGT / Fold change vs veh, OGT / RFU, BRD1 / Fold change vs veh, BRD1 / RFU, MARS / Fold change vs veh, MARS / RFU, ZNF655 / Fold change vs veh, ZNF655 / RFU, FAHD1 / Fold change vs veh, FAHD1 / RFU, BDP1 / Fold change vs veh, BDP1 / RFU, LRRCC1 / Fold change vs veh, LRRCC1 / RFU, ARID1A / Fold change vs veh, ARID1A / RFU, ZNF146 / Fold change vs veh, ZNF146 / RFU, ZNF330 / Fold change vs veh, ZNF330 / RFU, GPN3 / Fold change vs veh, GPN3 / RFU, C9orf123 / Fold change vs veh, C9orf123 / RFU, N4BP2L2 / Fold change vs veh, N4BP2L2 / RFU, ARFIP1 / Fold change vs veh, ARFIP1 / RFU, FAM179B / Fold change vs veh, FAM179B / RFU, BCL10 / Fold change vs veh, BCL10 / RFU, UHRF1BP1L / Fold change vs veh, UHRF1BP1L / RFU, BET1 / Fold change vs veh, BET1 / RFU, CNOT2 / Fold change vs veh, CNOT2 / RFU, ZNF268 / Fold change vs veh, ZNF268 / Fold change vs veh, ZNF507 / RFU, DGCR2 / Fold change vs veh, DGCR2 / RFU, WDSUB1 / Fold change vs veh, WDSUB1 / Fold change vs veh, HSP90B1 /// MIR3652 / RFU, ADSS / Fold change vs veh, ADSS / RFU, GK / Fold change vs veh, GK / RFU, ZNF148 / Fold change vs veh, ZNF148 / RFU, TAF9 / Fold change vs veh, TAF9 / RFU, SLC1A5 / Fold change vs veh, SLC1A5 / RFU, SLMO2 / Fold change vs veh, SLMO2 / RFU, ABCC4 / Fold change vs veh, ABCC4 / RFU, LOC101060439 /// RAP1B / Fold change vs veh, LOC101060439 /// RAP1B / RFU, RFX7 / Fold change vs veh, RFX7 / RFU, GTPBP10 / Fold change vs veh, GTPBP10 / RFU, CNEP1R1 / Fold change vs veh, CNEP1R1 / RFU, BIVM-ERCC5 /// ERCC5 / Fold change vs veh, BIVM-ERCC5 /// ERCC5 / RFU, ILF3 / Fold change vs veh, ILF3 / RFU 11762660_at / Fold change /veh 11762660_at / RFU VCAN (11757783_s_at) / Fold change /veh VCAN (11757783_s_at) / RFU DDX43 (11728927_at) / Fold change /veh DDX43 (11728927_at) / RFU KRT8 (11758188_x_at) / Fold change /veh KRT8 (11758188_x_at) / RFU NKD1 (11759106_at) / Fold change /veh NKD1 (11759106_at) / RFU SRD5A1 (11742802_a_at) / Fold change /veh SRD5A1 (11742802_a_at) / RFU TPSAB1 /// TPSB2 (11721975_s_at) / Fold change /veh TPSAB1 /// TPSB2 (11721975_s_at) / RFU GSTM3 (11746129_a_at) / Fold change /veh GSTM3 (11746129_a_at) / RFU IL23R (11737362_x_at) / Fold change /veh IL23R (11737362_x_at) / RFU TMEM51 (11727254_a_at) / Fold change /veh TMEM51 (11727254_a_at) / RFU PIWIL2 (11732686_x_at) / Fold change /veh PIWIL2 (11732686_x_at) / RFU ORM1 (11744905_x_at) / Fold change /veh ORM1 (11744905_x_at) / RFU CCDC152 (11743942_at) / Fold change /veh CCDC152 (11743942_at) / RFU ECM1 (11717891_a_at) / Fold change /veh ECM1 (11717891_a_at) / RFU IL23R (11748794_a_at) / Fold change /veh IL23R (11748794_a_at) / RFU TNFAIP8L3 (11732012_x_at) / Fold change /veh TNFAIP8L3 (11732012_x_at) / RFU MBOAT4 (11741988_at) / Fold change /veh MBOAT4 (11741988_at) / RFU 11764193_at / Fold change /veh 11764193_at / RFU TMEM53 (11763286_at) / Fold change /veh TMEM53 (11763286_at) / RFU MAGEB2 (11727129_at) / Fold change /veh MAGEB2 (11727129_at) / RFU TMEM200A (11744735_a_at) / Fold change /veh TMEM200A (11744735_a_at) / RFU CCDC152 (11751479_a_at) / Fold change /veh CCDC152 (11751479_a_at) / RFU FAM211A (11726209_a_at) / Fold change /veh FAM211A (11726209_a_at) / RFU RGS16 (11746705_a_at) / Fold change /veh RGS16 (11746705_a_at) / RFU VCAN (11755009_s_at) / Fold change /veh VCAN (11755009_s_at) / RFU RHOB (11743442_s_at) / Fold change /veh RHOB (11743442_s_at) / RFU RGS16 (11720943_a_at) / Fold change /veh RGS16 (11720943_a_at) / RFU RGS16 (11720944_at) / Fold change /veh RGS16 (11720944_at) / RFU, VPS4B / Fold change vs veh, VPS4B / RFU, CREB1 / Fold change vs veh, CREB1 / RFU, DNAJC13 / Fold change vs veh, DNAJC13 / RFU, GNAQ / Fold change vs veh, GNAQ / RFU, CDK5R1 / Fold change vs veh, CDK5R1 / RFU, ZRANB3 / Fold change vs veh, ZRANB3 / RFU, CUL4A / Fold change vs veh, CUL4A / RFU, CCNY / Fold change vs veh, CCNY / RFU, UFL1 / Fold change vs veh, UFL1 / RFU, COG3 / Fold change vs veh, COG3 / RFU, DIAPH2 / Fold change vs veh, DIAPH2 / RFU, SKA2 / Fold change vs veh, SKA2 / RFU, AFF3 / Fold change vs veh, AFF3 / RFU, LMF1 / Fold change vs veh, LMF1 / RFU, IPO11 / Fold change vs veh, IPO11 / RFU, DFFB / Fold change vs veh, DFFB / RFU, FOXP1 / Fold change vs veh, FOXP1 / RFU, CARD8 / Fold change vs veh, CARD8 / RFU, STRN3 / Fold change vs veh, STRN3 / RFU, ADK / Fold change vs veh, ADK / RFU, RASSF2 / Fold change vs veh, RASSF2 / RFU, WIPF1 / Fold change vs veh, WIPF1 / RFU, LARP1B / Fold change vs veh, LARP1B / RFU, RASA1 / Fold change vs veh, RASA1 / RFU, RB1 / Fold change vs veh, RB1 / RFU, PPFIA1 / Fold change vs veh, PPFIA1 / RFU, MAT2A / Fold change vs veh, MAT2A / RFU, CCT5 / Fold change vs veh, CCT5 / RFU, WDR92 / Fold change vs veh, WDR92 / RFU, CUX1 / Fold change vs veh, CUX1 / RFU, TTC7A / Fold change vs veh, TTC7A / RFU, TMEM135 / Fold change vs veh, TMEM135 / RFU, DEPTOR / Fold change vs veh, DEPTOR / RFU, CPM / Fold change vs veh, CPM / RFU, DNAJB6 / Fold change vs veh, DNAJB6 / RFU, CACNA2D3 / Fold change vs veh, CACNA2D3 / RFU, DTX4 / Fold change vs veh, DTX4 / RFU, TFCP2 / Fold change vs veh, TFCP2 / RFU, GMCL1 /// GMCL1P1 / Fold change vs veh, GMCL1 /// GMCL1P1 / RFU, AEBP2 / Fold change vs veh, AEBP2 / RFU, SNHG1 /// SNORD22 /// SNORD25 /// SNORD26 /// SNORD27 /// SNORD28 /// SNORD29 /// SNORD31 / Fold change vs veh, SNHG1 /// SNORD22 /// SNORD25 /// SNORD26 /// SNORD27 /// SNORD28 /// SNORD29 /// SNORD31 / Fold change (Aza/veh), C12orf56 (ProbeSet 11735607_a_at) / Fold change (ACY-1035/veh), C12orf56 (ProbeSet 11735607_a_at) / Fold change (Aza/veh), FGFR1OP (ProbeSet 11751329_s_at) / Fold change (ACY-1035/veh), FGFR1OP (ProbeSet 11751329_s_at) / Fold change (Aza/veh), VPS36 (ProbeSet 11739960_a_at) / Fold change (ACY-1035/veh), VPS36 (ProbeSet 11739960_a_at) / RFU SYPL1 (11715823_x_at) / Fold change /veh SYPL1 (11715823_x_at) / RFU IGFBP7 (11715501_s_at) / Fold change /veh IGFBP7 (11715501_s_at) / RFU REEP3 (11722064_at) / Fold change /veh REEP3 (11722064_at) / RFU IGLL1 (11728026_x_at) / Fold change /veh IGLL1 (11728026_x_at): dose or concentration left out as unconfirmed
# Conditions: ProbeSet 11749551_a_at; LIST B
structure (smiles),measurement,value
Nc1ccc(-c2cccs2)cc1NC(=O)c1ccc2c(c1)cc(C1CC1)n2CCN1CCOCC1 [ACY-1035],"RFU, RNGTT",53.54 RFU
